Assay results published in the NIST ThermoML archive (doi:10.1016/j.jct.2004.09.015).
± gives the expanded uncertainty stated by the source.

Conditions: Liquid, Closed cell (Static) method

CC(=O)N(C)C [N,N-dimethylethanamide]
Conditions | vapor or sublimation pressure [kPa]
323.15 K | 1.158 ± 0.026
333.15 K | 1.982 ± 0.028
343.15 K | 3.271 ± 0.033
353.15 K | 5.193 ± 0.041
363.15 K | 8 ± 0.052
373.15 K | 12 ± 0.069
383.15 K | 17.55 ± 0.091
393.15 K | 25.03 ± 0.12
403.15 K | 35.04 ± 0.16
413.15 K | 48.09 ± 0.21
423.15 K | 64.73 ± 0.28
